In paper PMC7534320 (Journal of Enzyme Inhibition and Medicinal Chemistry, 2020):
Values after ≈ are worked out from the molar mass of the structure shown. Like-named read-outs stand apart in the source and are kept apart here.

Assays:
[1] = PAMPA gastrointestinal (GIT) permeability; assay type: in vitro ADME
From the text: (§1) In vitro gastrointestinal (GIT) and blood–brain barrier (BBB) permeability was studied using the PAMPA model (Parallel Artificial Membrane Permeability Assay). The sandwich consists of two 96-well microfilter plates. The PAMPA system contains two chambers: the donor at the bottom and the acceptor chamber at the top. The chambers are separated by a 120-μm-thick microfilter disc coated with a 20% (w/v) dodecane solution of a lecithin mixture (Pion, Inc.). Before adding samples to the donor compartments, the samples were dissolved in DMSO. The donor solution was adjusted to pH ≈ 6.8 for GIT application and to pH ≈ 7.4 for BBB application using 0.5 M NaOH. The plates were combined and then incubated for 3 h for GIT model and 4 h for BBB model in a humidity-saturated atmosphere at the temperature set at 310 K. The apparent permeability coefficient (Papp) was calculated according to the following equation: Papp=−ln(1−CA/Cequilibrium)/S×(1/VD+1/VA)×t where VD – donor volume, VA – acceptor volume, Cequilibrium – equilibrium concentration Cequilibrium=CD×VD+ CA×VA/VD+VA, S – membrane area, t – incubation time (in seconds).

[2] = PAMPA blood–brain barrier (BBB) permeability; assay type: in vitro ADME
From the text: as §1
Compounds with high permeability have the Papp value at the level >4.0 × 10^−6 cm s^−1 [28].

[3] = system: C. difficile ATCC 9689; test: Agar well diffusion technique; assay type: cell-based; conditions: 25 mg/mL dissolved in methanol and filtered
[4] = system: C. butyricum ATTC 860; assay type: cell-based; conditions: 25 mg/mL dissolved in methanol and filtered
[5] = system: L. monocytogenes ATCC 7644; test: Agar well diffusion technique; assay type: cell-based; conditions: 25 mg/mL dissolved in methanol and filtered
[6] = system: B. subtillis ATCC 238557; test: Agar well diffusion technique; assay type: cell-based; conditions: 25 mg/mL dissolved in methanol and filtered
[7] = system: E. faecalis ATTC 29212; test: Agar well diffusion technique; assay type: cell-based; conditions: 25 mg/mL dissolved in methanol and filtered
[8] = system: S. aureus ATCC 25923; test: Agar well diffusion technique; assay type: cell-based; conditions: 25 mg/mL dissolved in methanol and filtered
[9] = system: S. pyrogenes ATCC 19615; test: Agar well diffusion technique; assay type: cell-based; conditions: 25 mg/mL dissolved in methanol and filtered
[10] = system: E. coli ATCC 25922; test: Agar well diffusion technique; assay type: cell-based; conditions: 25 mg/mL dissolved in methanol and filtered
[11] = system: K. pneumoniae ATCC 31488; test: Agar well diffusion technique; assay type: cell-based; conditions: 25 mg/mL dissolved in methanol and filtered
[12] = system: P. mirabilis ATCC 12453; test: Agar well diffusion technique; assay type: cell-based; conditions: 25 mg/mL dissolved in methanol and filtered
[13] = system: S. typhimurium ATCC 14028; test: Agar well diffusion technique; assay type: cell-based; conditions: 25 mg/mL dissolved in methanol and filtered
[14] = system: P. aereuginosa ATCC 27853; test: Agar well diffusion technique; assay type: cell-based; conditions: 25 mg/mL dissolved in methanol and filtered
[15] = system: E. aerogenes ATCC 13048; test: Agar well diffusion technique; assay type: cell-based; conditions: 25 mg/mL dissolved in methanol and filtered
[16] = system: C. krusei ATCC 14243; test: Agar well diffusion technique; assay type: cell-based; conditions: 25 mg/mL dissolved in methanol and filtered
[17] = system: C. albicans ATTC 10231; test: Agar well diffusion technique; assay type: cell-based; conditions: 25 mg/mL dissolved in methanol and filtered
[18] = Antioxidant activity, DPPH radical reaction; assay type: biochemical; conditions: free substance; linear regression
Experimental: The antioxidant activity was evaluated using the DPPH radical reaction. The investigation of antioxidant properties was performed spectrophotometrically, according to Studzińska-Sroka’s modifications. […] 25.0 µL of DPPH solution was mixed with 175.0 µL of studied solutions in a 96-well plate, and then the plate was shaken and incubated in darkness for half an hour at room temperature. Subsequently, the absorbance (A) was measured at the wavelength set at 517 nm against the blank (the mixture of DPPH solution and methanol). The inhibition of the DPPH radical by the studied samples was calculated due to the following equation: A=Ao − Ai/Ao x 100% where Ao is the absorbance of the control sample, Ai is the absorbance of studied samples. Every determination was repeated six times. As a reference, vitamin C was used. IC50 values, which determine the concentration of the substance that inhibits the formation of DPPH by 50%, were determined by linear regression analysis.

[19] = piperine after incorporation into the cavity of β-cyclodextrin; cited from earlier work

Question: With `COc1cc(/C=C/C(=O)CC(=O)/C=C/c2ccc(O)c(OC)c2)ccc1O` [Curcumin, Diferuloylmethane] as the compound, how does the “permeability classification, GIT PAMPA” value [1] read?
Answer: well permeable

Question: And the Papp at 3 h ([1]; pH 6.8)?
Answer: 3.46 ×10⁻⁶ cm/s

Question: And the “permeability classification, BBB PAMPA” value ([2]; PAMPA)?
Answer: well permeable

Question: What about the Papp at 4 h ([2]; PAMPA, pH 7.4) of the same compound?
Answer: 31.1 ×10⁻⁶ cm/s

Question: What about the “Inhibition zone (mm) – Agar well diffusion technique” value (“Inhibition zone (mm)” below) [3] of the same compound?
Answer: 6.5 mm

Question: And the “Inhibition zone (mm)” value [4]?
Answer: 5.5 mm

Question: What about the “Inhibition zone (mm)” value [5] of the same compound?
Answer: 5.0 mm

Question: And the “Inhibition zone (mm)” value [6]?
Answer: 8.5 mm

Question: And the “Inhibition zone (mm)” value [7]?
Answer: 10.5 mm

Question: And the “Inhibition zone (mm)” value [8]?
Answer: 4.0 mm

Question: What about the “Inhibition zone (mm)” value [9] of the same compound?
Answer: 5.0 mm

Question: And the “Inhibition zone (mm)” value [10]?
Answer: 3.0 mm

Question: What about the “Inhibition zone (mm)” value [11] of the same compound?
Answer: 2.5 mm

Question: And the “Inhibition zone (mm)” value [12]?
Answer: 3.0 mm

Question: What about the “Inhibition zone (mm)” value [13] of the same compound?
Answer: 5.5 mm

Question: What about the “Inhibition zone (mm)” value [14] of the same compound?
Answer: 2.5 mm

Question: What about the “Inhibition zone (mm)” value [15] of the same compound?
Answer: 2.5 mm

Question: What about the “Inhibition zone (mm)” value [16] of the same compound?
Answer: 2.0 mm

Question: What about the “Inhibition zone (mm)” value [17] of the same compound?
Answer: 4.5 mm

Question: Which Papp at 3 h ([1]; donor pH ≈ 6.8, 3 h, 310 K, read-out: Papp of piperine, GIT PAMPA) does the source give for `O=C(/C=C/C=C/c1ccc2c(c1)OCO2)N1CCCCC1` [Piperine, piperine] here?
Answer: 19 ×10⁻⁶ cm/s

Question: And the Papp at 4 h ([2]; PAMPA, donor pH ≈ 7.4, 4 h, 310 K, read-out: Papp of piperine, BBB PAMPA)?
Answer: 11.9 ×10⁻⁶ cm/s

Question: And the “permeability classification, BBB PAMPA” value ([2]; Papp > 4.0 × 10^−6 cm s^−1 = high permeability)?
Answer: well permeable

Question: And the “IC50 DPPH” value [18]?
Answer: 38.945 mg/mL (≈ 136 mM)

Question: What about the “Inhibition zone (mm)” value [3] of the same compound?
Answer: 3.5 mm

Question: And the “Inhibition zone (mm)” value [4]?
Answer: 5.5 mm

Question: And the “Inhibition zone (mm)” value [5]?
Answer: 5.0 mm

Question: And the “Inhibition zone (mm)” value [6]?
Answer: 7.0 mm

Question: What about the “Inhibition zone (mm)” value [7] of the same compound?
Answer: 9.0 mm

Question: And the “Inhibition zone (mm)” value [8]?
Answer: 3.0 mm

Question: And the “Inhibition zone (mm)” value [9]?
Answer: 2.5 mm

Question: And the “Inhibition zone (mm)” value [10]?
Answer: 2.0 mm

Question: And the “Inhibition zone (mm)” value [11]?
Answer: 2.0 mm

Question: What about the “Inhibition zone (mm)” value [12] of the same compound?
Answer: 1.0 mm

Question: And the “Inhibition zone (mm)” value [13]?
Answer: 1.5 mm

Question: What about the “Inhibition zone (mm)” value [14] of the same compound?
Answer: 1.5 mm

Question: And the “Inhibition zone (mm)” value [15]?
Answer: 1.0 mm

Question: And the “Inhibition zone (mm)” value [16]?
Answer: 2.5 mm

Question: And the “Inhibition zone (mm)” value [17]?
Answer: 2.5 mm

Question: What about the “increase of solubility of piperine” value [19] of the same compound?
Answer: about 16 folds

Question: Which “IC50 DPPH” value [18] does the source give for `O=C1O[C@H]([C@@H](O)CO)C(O)=C1O` [Vitamin C] here?
Answer: 0.066 mg/mL (≈ 0.375 mM)
